# Measurements: patent publication US11072616B2, “Cyclic peptides targeting alpha-4-beta-7 integrin” (Zealand Pharma A/S, priority 2015, dated 2021)
# Where two headings read alike, the source gives them in different places.
# What was measured:
# [1] = In vivo pharmacokinetic assessment, colon; design: species or system CD-1 mice; conditions: for tmax: colon, naïve mice
# [2] = In vivo pharmacokinetic assessment, liver; design: species or system CD-1 mice
# From the text: In Vivo Pharmacokinetic Assessments in Rodents
# The livers will be blotted and weighed.
# DSS-treated mice = experiment: 8-day efficacy study in DSS model (therapeutic) of ulcerative colitis; assay type: in vivo, C57Bl/6 mice; conditions: for reduction of DAI score: Day 8 vs DSS+vehicle; for reduction of lesion length: vs control vehicle treated-group
# Procedure: Animals. Female C57Bl/6 mice (Charles River, St-Constant, Qc), weighting 16-19 g at delivery were used for this study. Following arrival in the animal facility, all animals were subjected to a general health evaluation. An acclimation period of 7-14 days was allowed before the beginning of the study.
# Oral dosing of the test article and the vehicle. From Day 5 to Day 8, nacellins and the vehicle were administered as a single slow bolus (over approximately 5 seconds) via oral route (p.o.), according to the procedure of administration of solution by gavage: the animal was firmly restrained. A bulb-tipped gastric gavage needle of 22G was passed through the side of the mouth and was advanced towards the oesophagus. The test articles and the vehicle were dosed orally at 5 mL/kg.
# Intraperitoneal dosing of the test articles and the vehicle. On day 5, DATK32 antibody was administered in only on Day 5, as a single slow bolus (over approximately 5 seconds) via the i.p. route. […] Intraperitoneal administration was performed accordingly to the following procedure: the mouse was restrained manually and held with the head and body tilted downward. The tip of the needle (27 G) was inserted through the skin and just past the abdominal wall. A short pull back of the plunger of the syringe was done prior to administration of the solution to make sure that the syringe was not inserted in any abdominal organ (fluid would be pulled back into the syringe in this case).
# Inflammation Score. Once the mouse was euthanized, the colon was collected and its length was measured. Lesion length was also measured. Colon inflammation was scored based on severity of oedema and ulceration.
# Disease Activity Index (DAI) assessment. Body weight and DAI were measured on Day 5 in order to distribute DSS-treated animals in two uniform groups prior dosing. Specific symptoms associated to UC were scored based on the severity of each particular symptoms: 1—blood in stool (negative hemoccult, positive hemoccult, blood traces in stool visible, rectal bleeding); 2—stool consistency (normal, soft but still formed, very soft, diarrhea); 3—posture and fur (normal; ruffled fur; ruffled fur combined to slight hunched posture and slight dehydration; ruffled fur combined to hunched posture, dehydration and altered walking; moribund (euthanasia is mandatory before the animal reach this point). The overall DAI score was the sum of the three parameters (maximum score 9). Body weight measurement and DAI assessment were performed also on Day 8 to evaluate the effect of the treatments.
# [3] = system: CD3+CD4+α4β7+ T lymphocytes; experiment: FACS analysis of T lymphocyte populations, 8-day DSS study; assay type: in vivo, C57Bl/6 mice
# From the text: Collection of samples. On Day 8, five hours after ET02451-01, ET02452-01 and vehicle dosing, the animals were euthanized by cardiac puncture under general anesthesia, according to the “Guide to the Care and Use of Experimental Animals” published by the CCAC. Blood was transferred in a Sarstedt tube containing EDTA. Mesenteric and peripheral (inguinal, auxiliary and brachial) lymph nodes were collected and transferred on ice in corresponding tubes containing cold PBS. Nodes were kept on ice until tissue preparation.
# Cell population labeling. Blood was withdrawn by cardiac puncture and collected on EDTA-coated tubes. Mensenteric lymph nodes (MLN) and peripheral lymph nodes (PLN) were also collected. Mononuclear cells from the tissues will be isolated using density gradient (Lympholyte) and they were stained with fluorescent antibodies. […] After washes, cells were fixed using BD Fix Solution. Percentage of different subpopulations of T lymphocytes were then analysed using FACSCalibur cytometer. Antibodies employed were the same as listed for the single-dose PD studies above.
# [4] = mouse, in vivo
# Procedure: (§1) Oral bioavailability of test compounds was conducted by assessing plasma exposure of following one or two oral doses in mice and, in some cases, comparing said plasma exposure with that following a single intravenous dose of the same compound.
# (§2) Body weights were recorded on the day of dosing.
# (§3) Dosing: The formulation containing the test compound were administered p.o. by gavage with disposable feeding needles.
# (§4) Sample processing/storage: All blood samples were transferred into K2EDTA tubes on wet ice and centrifuged within 5 min (3200×g for 5 min at 4° C.) to obtain plasma. Samples were stored frozen at −80° C. until bioanalysis.
# (§5) Instrumentation: AB Sciex API 4000 Q-TRAP MS/MS system equipped with an Agilent LC system with a binary pump, a solvent degasser, a thermostatted column compartment, a CTC autosampler and a divert valve installed between the column and mass spectrometer inlet.
# [5] = In vivo pharmacokinetic assessment, plasma; conditions: naïve mice
# Procedure: as §1, §2, §3, §4, §5
structure (smiles),measurement,setting,value
CC(C)C[C@@H]1NC(=O)c2ccc(-c3ccc(N4CCNCC4)cc3)c(c2)CNC(=O)[C@@H]2CCCN2[C@H](C(=O)NC(C)(C)C)[C@H](C)NC(=O)[C@H]([C@@H](C)O)NC(=O)[C@H](CC(=O)O)NC1=O [ET02451],tmax,[1]; single i.v. 5 mg/kg,2.00 h
same,tmax,[1]; single p.o. 40 mg/kg,2.00 h
same,oral bioavailability in colon,"[1]; mouse, in vivo",~100%
same,AUC0-inf,"[1]; mouse, in vivo, iv, 5 mg/kg",17140 ng·h/mL
same,AUC0-tlast,"[1]; mouse, in vivo, iv, 5 mg/kg",17109 ng·h/mL
same,MRT0-inf,"[1]; mouse, in vivo, iv, 5 mg/kg",3.43 h
same,half-life in colon,"[1]; mouse, in vivo, po",greater than 21 hours
same,AUC0-inf,"[1]; mouse, in vivo, po, 40 mg/kg",145327 ng·h/mL
same,AUC0-tlast,"[1]; mouse, in vivo, po, 40 mg/kg",130746 ng·h/mL
same,MRT0-inf,"[1]; mouse, in vivo, po, 40 mg/kg",4.59 h
same,tmax,"[2]; liver, single i.v. 5 mg/kg, naïve mice",0.0833 h
same,bioavailability in the liver,"[2]; mouse, in vivo",~8%
same,main route of elimination,"[2]; mouse, in vivo",hepatobiliary clearance
same,AUC0-inf,"[2]; mouse, in vivo, iv, 5 mg/kg",8460 ng·h/mL
same,AUC0-tlast,"[2]; mouse, in vivo, iv, 5 mg/kg",8289 ng·h/mL
same,MRT0-inf,"[2]; mouse, in vivo, iv, 5 mg/kg",2.00 h
same,half-life in liver,"[2]; mouse, in vivo, po",~8 h
same,AUC0-inf,"[2]; mouse, in vivo, po, 40 mg/kg",6054 ng·h/mL
same,AUC0-tlast,"[2]; mouse, in vivo, po, 40 mg/kg",6024 ng·h/mL
same,MRT0-inf,"[2]; mouse, in vivo, po, 40 mg/kg",2.11 h
same,tmax,"[2]; mouse, in vivo, po, 40 mg/kg",2.00 h
same,reduction of DAI score,"DSS-treated mice; oral 40 mg/kg, Day 5 to Day 8",15%
same,lesion/colon length,"DSS-treated mice; oral 40 mg/kg, vehicle group 40%",12%
same,reduction of lesion length,DSS-treated mice; oral 40 mg/kg,significantly reduced the lesion length
same,CD3+CD4+α4β7+ cell population in mesenteric lymph nodes,[3]; p.o. 40 mg/kg,significant decrease
same,F,"[4]; iv, 5 mg/kg",100%
same,elimination half-life in plasma,[4]; po,~0.5 h
same,oral bioavailability / absorption (in words),[4]; po,significant absorption from the gut and systemic exposure following oral dosing
same,AUC0-tiast,"[4]; po, 40 mg/kg",686 ng·h/mL
same,F,"[4]; po, 40 mg/kg",11.0%
same,AUC0-tiast,[5]; single i.v. 5 mg/kg,778 ng·h/mL
same,tmax,[5]; single i.v. 5 mg/kg,4.98 min
same,Cmax,[5]; single p.o. 40 mg/kg,4638 ng/mL
CC(C)C[C@@H]1NC(=O)c2ccc(-c3ccnc4ccccc34)c(c2)CNC(=O)[C@@H]2CCCN2[C@H](C(=O)NC(C)(C)C)[C@H](C)NC(=O)[C@H]([C@@H](C)O)NC(=O)[C@H](CC(=O)O)NC1=O [ET02452],reduction of DAI score,"DSS-treated mice; i.p.: ET02452-01 65 mg/kg Day 5-8, DATK32 15 mg/kg Day 5",46%
same,reduction of lesion length,"DSS-treated mice; i.p.: ET02452-01 65 mg/kg, DATK32 15 mg/kg Day 5",20%
same,reduction of DAI score,"DSS-treated mice; oral 40 mg/kg, Day 5 to Day 8",did not have any beneficial effect
same,reduction of lesion length,DSS-treated mice; oral 40 mg/kg,53%
same,CD3+CD4+α4β7+ cell population in mesenteric lymph nodes,"[3]; i.p.: ET02452 65 mg/kg, DATK32 15 mg/kg",significant decrease
same,oral bioavailability / absorption (in words),[4]; po,low oral bioavailability
